Experimental findings from article PMC12251161, “Crucian Carp-Derived ACE-Inhibitory Peptides with In Vivo Antihypertensive Activity: Insights into Bioactivity, Mechanism, and Safety” (Molecules, 2025) are described below.

Data set [1] concerns BALB/c mice. Put plainly: 90-day oral safety: histopathology (H&E). In kind it is in vivo. The following applies: 50 mg/kg/day oral, 90 days, liver, kidneys, spleen, lungs, heart. As to the method: (§1) A total of 40 healthy 7-week-old BALB/c mice (20 males and 20 non-pregnant females), with body weights within ±15% of the cohort mean, were obtained from Yangzhou University. All animals underwent a 7-day acclimation period under specific pathogen-free conditions prior to the experiment. Mice were housed under standard laboratory conditions: ambient temperature of 20–26 °C, relative humidity of 40–70%, and a 12 h light/dark cycle. General appearance, behavior, food intake, and body weight were monitored daily throughout the study. To evaluate the potential subchronic toxicity of the synthetic GA-Hyp-GAR peptide, a 90-day oral administration study was conducted. Mice were randomly divided into two groups (n = 10 males and 10 females per group): a normal group and a GA-Hyp-GAR-treated group receiving 50 mg/kg/day via daily intragastric gavage. The normal group received an equivalent volume of ultrapure water via the same route. After 90 consecutive days of treatment, all animals were anesthetized and euthanized 24 h after the final dose. […] Organ coefficients (organ weight/body weight × 100%) were calculated to assess potential physiological or pathological effects associated with long-term GA-Hyp-GAR exposure. […]

Data set [2] concerns BALB/c mice. Put plainly: 90-day oral safety: hematological parameters. In kind it is in vivo. Further details: Red Cell Distribution Width—CV: unit not given here. Conditions: 50 mg/kg/day oral, 90 days. How it is done: (§2) A total of 40 healthy 7-week-old BALB/c mice (20 males and 20 non-pregnant females), with body weights within ±15% of the cohort mean, were obtained from Yangzhou University. All animals underwent a 7-day acclimation period under specific pathogen-free conditions prior to the experiment. Mice were housed under standard laboratory conditions: ambient temperature of 20–26 °C, relative humidity of 40–70%, and a 12 h light/dark cycle. General appearance, behavior, food intake, and body weight were monitored daily throughout the study. To evaluate the potential subchronic toxicity of the synthetic GA-Hyp-GAR peptide, a 90-day oral administration study was conducted. Mice were randomly divided into two groups (n = 10 males and 10 females per group): a normal group and a GA-Hyp-GAR-treated group receiving 50 mg/kg/day via daily intragastric gavage. The normal group received an equivalent volume of ultrapure water via the same route. After 90 consecutive days of treatment, all animals were anesthetized and euthanized 24 h after the final dose. Blood samples were collected via cardiac puncture for hematological and serum biochemical analyses, performed using a Hitachi 3500 fully automated biochemical analyzer (Hitachi High-Tech Science Corp., Tokyo, Japan). Major organs—including the heart, liver, spleen, lungs, and kidneys—were excised, blotted dry, and weighed. Organ coefficients (organ weight/body weight × 100%) were calculated to assess potential physiological or pathological effects associated with long-term GA-Hyp-GAR exposure. Tissues were fixed in 4% paraformaldehyde, embedded in paraffin, sectioned, and stained with hematoxylin and eosin for histopathological evaluation. All animal experiments were conducted in accordance with the ethical guidelines of the Animal Ethics Committee of Nanjing Agricultural University, which approved the study protocol (Protocol No. NJAU-20250120-35).

Data set [3] concerns BALB/c mice. Put plainly: 90-day oral safety: organ coefficients. It is filed as in vivo. Conditions: 50 mg/kg/day oral, 90 days; liver, kidneys, spleen, lungs, heart. As to the method: as §1
The test system of data set [4] is BALB/c mice. Put plainly: 90-day oral safety: serum biochemical parameters. In kind it is in vivo. The following applies: 50 mg/kg/day oral, 90 days. How it is done: as §2
Data set [5] deals with BALB/c mice. Put plainly: 90-day oral safety: mortality, clinical signs, body weight. It is filed as in vivo. The following applies: 50 mg/kg/day oral, 90 days, male and female. As to the method: as §1
Data set [6] addresses T1, ACE (from rabbit lung, EC 3.4.15.1) (Oryctolagus cuniculus, UniProt P12822).
T1 construct: ACE (from rabbit lung, EC 3.4.15.1); purchased Sigma-Aldrich Co. (St. Louis, MO, USA); host or cells: rabbit lung tissue
T1 sequence (P12822 34-1310): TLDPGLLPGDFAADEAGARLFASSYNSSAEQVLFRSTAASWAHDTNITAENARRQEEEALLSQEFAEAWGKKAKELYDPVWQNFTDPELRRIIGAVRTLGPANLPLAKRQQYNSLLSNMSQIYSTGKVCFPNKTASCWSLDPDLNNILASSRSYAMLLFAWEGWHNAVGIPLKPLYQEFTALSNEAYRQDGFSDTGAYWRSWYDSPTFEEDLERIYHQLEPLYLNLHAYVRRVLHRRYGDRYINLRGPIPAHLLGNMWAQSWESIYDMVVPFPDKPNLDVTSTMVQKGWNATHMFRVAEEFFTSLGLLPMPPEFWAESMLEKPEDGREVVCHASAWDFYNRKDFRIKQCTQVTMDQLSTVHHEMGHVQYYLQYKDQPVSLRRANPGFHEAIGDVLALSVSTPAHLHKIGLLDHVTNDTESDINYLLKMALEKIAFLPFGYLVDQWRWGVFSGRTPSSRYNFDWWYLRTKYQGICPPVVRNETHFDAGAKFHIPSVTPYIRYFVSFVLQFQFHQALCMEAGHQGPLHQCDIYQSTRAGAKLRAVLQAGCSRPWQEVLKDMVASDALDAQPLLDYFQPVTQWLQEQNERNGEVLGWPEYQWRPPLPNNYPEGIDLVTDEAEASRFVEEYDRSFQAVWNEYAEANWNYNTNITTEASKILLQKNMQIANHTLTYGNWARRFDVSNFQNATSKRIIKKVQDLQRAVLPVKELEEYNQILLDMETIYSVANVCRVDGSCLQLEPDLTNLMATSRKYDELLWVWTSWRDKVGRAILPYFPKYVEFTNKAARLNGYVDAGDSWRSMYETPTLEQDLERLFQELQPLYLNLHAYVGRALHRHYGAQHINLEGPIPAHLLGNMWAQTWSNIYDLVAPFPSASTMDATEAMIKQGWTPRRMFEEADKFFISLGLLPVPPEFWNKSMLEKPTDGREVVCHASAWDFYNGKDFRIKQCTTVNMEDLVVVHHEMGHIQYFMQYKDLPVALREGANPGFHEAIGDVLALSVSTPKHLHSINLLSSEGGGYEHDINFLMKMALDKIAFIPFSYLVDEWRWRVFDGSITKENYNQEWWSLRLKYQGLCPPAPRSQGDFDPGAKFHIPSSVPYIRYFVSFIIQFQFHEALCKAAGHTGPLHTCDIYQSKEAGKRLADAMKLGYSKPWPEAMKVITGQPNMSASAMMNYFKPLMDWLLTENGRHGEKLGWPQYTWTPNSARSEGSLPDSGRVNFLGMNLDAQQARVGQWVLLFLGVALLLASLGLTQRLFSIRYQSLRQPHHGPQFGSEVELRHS
Put plainly: ACE-inhibitory activity assay (FAPGG substrate, spectrophotometric). It is filed as biochemical. Conditions: synthetic peptides; FAPGG 1 mmol/L, 80 mM HEPES, 0.3 M NaCl, pH 8.3, 37 °C; triplicate, sigmoidal dose–response fit; read-out: IC₅₀ ACE inhibition. How it is done: All other chemicals were of analytical grade.
All assays were conducted in triplicate.

For data set [7], the system named is endothelial nitric oxide synthase (eNOS). Put plainly: Endothelial nitric oxide synthase level in SHRs (ELISA). In kind it is in vivo, spontaneously hypertensive rats (SHRs). Conditions: oral, vs model group. An excerpt: (§3) Formic acid (≥99%, LC-MS grade), 4-(2-hydroxyethyl) piperazine-1-ethanesulfonic acid (HEPES, ≥99%, ACS grade), ACE (from rabbit lung, EC 3.4.15.1), acetonitrile (ACN, ≥99%, LC-MS grade), and N-[3-(2-Furyl) acryloyl]-Phe-Gly-Gly (FAPGG, ≥99%, ACS grade) were obtained from Sigma-Aldrich Co. (St. Louis, MO, USA). An enzyme-linked immunosorbent assay (ELISA) kit for AngII (catalog no. D731188-0048) was purchased from Sangon Biotech (Shanghai, China). ELISA kits for endothelial nitric oxide synthase (eNOS, catalog no. JL21190-48T) and BK (catalog no. JL21045-48T) were obtained from JONLN Biotechnology Co., Ltd. (Shanghai, China). Nitric Oxide (NO) assay kit (catalog no. A013-2-1) was purchased from Nanjing Jiancheng Bioengineering Institute (Nanjing, Jiangsu, China). All other chemicals were of analytical grade. […]
(§4) Systolic blood pressure (SBP) was measured using a non-invasive blood pressure monitoring system (BP-2000, Softron Co., Tokyo, Japan) at baseline (0 h) and at 2, 4, 6, 8, and 12 h after administration to evaluate the antihypertensive effects of the test peptides, following the method described by Kurita. The levels of AngII, eNOS, and BK were measured using commercial ELISA kits, while NO levels were determined using the Microwell plate method with a specialized assay kit.

The subject of the next data set is angiotensin II. Put plainly: Angiotensin II level in SHRs (ELISA). In kind it is in vivo, spontaneously hypertensive rats (SHRs). The following applies: captopril 12 mg/kg oral, n = 6.
Description: as §3, §4
(In general: ELISA stands for enzyme-linked immunosorbent assay.)

The subject of another data set is nitric oxide (NO). Put plainly: Nitric oxide level in SHRs (assay kit). It is filed as in vivo, spontaneously hypertensive rats (SHRs). Conditions: oral, vs model group.
Description: as §3, §4

Where a SMILES comes first, the peptide text is derived from it. [ ]: non-standard residue; d: D form. Hyp = O=C(O)[C@@H]1C[C@@H](O)CN1

On to `C[C@H](NC(=O)CNC(=O)[C@@H]1C[C@@H](O)CN1C(=O)[C@H](C)NC(=O)CN)C(=O)N[C@@H](CCCNC(=N)N)C(=O)O` [GA-Hyp-GAR, Gly-Ala-hydroxyproline-Gly-Ala-Arg] (H-GA[Hyp]GAR-OH), for which the “histopathology of major organs” value with BALB/c mice [1] was “no observable pathological changes in any of the examined organs”. Besides, the “hematological parameters in words” value with BALB/c mice [2] (vs control) was “no statistically significant differences (p > 0.05) between the treated and control groups in key hematological parameters”. Moreover, the Plateletcrit in the data set with BALB/c mice [2] (normal 0.16 ± 0.27, p >0.9999) turned out to be 0.16 ± 0.26%. For the same compound, the “Mean Platelet Volume” value with BALB/c mice [2] (normal 2.05 ± 3.45, p 0.9798) was 2.09 ± 3.52 fL. The “Platelet Distribution Width” value in the data set with BALB/c mice [2] (normal 2.91 ± 4.95, p 0.9364) was 3.09 ± 5.00 fL. The “Platelet Large Cell Ratio” value with BALB/c mice [2] (normal 3.62 ± 6.29, p 0.9916) amounted to 3.65 ± 6.26%. Besides, the “White Blood Cells” value in the data set with BALB/c mice [2] (normal 4.28 ± 1.72, p 0.3610) was determined as 3.66 ± 1.19 ×10⁹/L. For the same compound, the “Red Blood Cells” value with BALB/c mice [2] (normal 10.71 ± 0.83, p 0.2451) is 11.13 ± 0.73 ×10^12/L. In the data set on BALB/c mice [2] (normal 15.65 ± 0.32, p 0.7101), the “Mean Corpuscular Hemoglobin” value was found to be 15.70 ± 0.27 pg. Besides, the “Red Cell Distribution Width—CV” value in the data set on BALB/c mice [2] (normal 26.58 ± 1.94, p 0.4260) is reported as 25.95 ± 1.49. Further, the “Red Cell Distribution Width—SD” value with BALB/c mice [2] (normal 32.81 ± 11.68, p 0.8517) is 31.99 ± 7.11 fL. The Hemoglobin in the data set with BALB/c mice [2] (normal 167.60 ± 13.10, p 0.1978) is 174.70 ± 10.50 g/L. The “Mean Corpuscular Hemoglobin Concentration” value with BALB/c mice [2] (normal 341.80 ± 15.10, p 0.7101) came to 355.90 ± 5.50 g/L. Further, the “Platelet Count” value in the data set with BALB/c mice [2] (normal 675.50 ± 200.50, p 0.9198) is 683.40 ± 140.00 ×10⁹/L. Moreover, the organ coefficients result in the data set on BALB/c mice [3] was “organ coefficients did not differ significantly between the GA-Hyp-GAR-treated and normal groups (p > 0.05)”. Moreover, the “serum biochemical markers of hepatic and renal function in words” value in the data set on BALB/c mice [4] (vs normal group) is “no significant differences (p > 0.05) between the treated and normal groups in markers of hepatic function”. The Triglycerides in the data set with BALB/c mice [4] (normal 1.94 ± 0.40, p 0.0526) stood at 2.35 ± 0.48 mmol/L. The “Total Cholesterol” value in the data set with BALB/c mice [4] (normal 2.47 ± 0.23, p 0.1796) is 2.32 ± 0.25 mmol/L. For the same compound, the “Aspartate Aminotransferase” value in the data set on BALB/c mice [4] (normal 2.48 ± 1.03, p 0.9294) turned out to be 2.44 ± 0.96 µkat/L. Besides, the “Alkaline Phosphatase” value in the data set with BALB/c mice [4] (normal 3.32 ± 0.65, p 0.2065) is recorded as 2.99 ± 0.46 µkat/L. The compound also came in with a Glucose with BALB/c mice [4] (normal 5.69 ± 3.38, p 0.1654) of 7.79 ± 3.11 mmol/L. Besides, the “Blood Urea Nitrogen” value with BALB/c mice [4] (normal 7.81 ± 1.53, p 0.6237) is reported as 8.13 ± 1.33 mmol/L. Further, the Creatinine in the data set on BALB/c mice [4] (normal 14.70 ± 5.80, p 0.2390) is given as 18.13 ± 6.76 µmol/L. For the same compound, the Albumin in the data set on BALB/c mice [4] (normal 35.24 ± 1.32, p 0.5021) was 35.60 ± 1.01 g/L. For the same compound, the “Total Protein” value in the data set on BALB/c mice [4] (normal 58.21 ± 3.77, p 0.9711) is 58.16 ± 2.09 g/L. Further, the “Alanine Aminotransferase” value in the data set on BALB/c mice [4] (normal 684.30 ± 288.39, p 0.8986) is 701.81 ± 316.56 nkat/L. In the data set with BALB/c mice [5], the body weight result is given as “Body weight increased steadily in all groups over the study period”; the “mortality and signs of toxicity” value is reported as “no mortality or signs of toxicity were observed”. Also, in data set [6], the IC50 is 4 µM.
For `C[C@H](NC(=O)CNC(=O)[C@@H]1C[C@@H](O)CN1)C(=O)N[C@@H](CCCNC(=N)N)C(=O)O` [Hyp-GAR, Hydroxyproline-Gly-Ala-Arg] (H-[Hyp]GAR-OH), the IC50 in data set [6] amounted to 12.2 µM.
As for `C[C@H](CS)C(=O)N1CCC[C@H]1C(=O)O` [captopril], the “eNOS levels in words” value in data set [7] is “significantly restored both eNOS and NO levels”. In the data set with angiotensin II, this compound had an AngII concentration of 220.16 ± 31.67 pg/mL. In the data set on nitric oxide (NO), the “NO levels in words” value is “significantly restored both eNOS and NO levels”.
